Read-outs that look alike come from different tables or passages of the source.
How the values were obtained:
primary neurons [1] = experiment: Neuronal cell death in the presence of H2O2; type: cell-based, mouse; settings: 1 or 10 μM compound, 100 μM H2O2
Protocol: (§1) Primary neurons were treated with 0.4, 1, 2, 10 or 50 μM of compound 2 or compound 22 (prepared according to Example 2). NSP5 was added to primary neurons at DIV11, and compound 2 or 22 was added 48 hours later. Cells were treated with propidium iodide 48 hours after compound addition. Cells were washed with PBS and fixed with 4% PFA. Cells were then washed and stained with DAPI. Images of cells were taken with ZEISS Axioscan 7 microscope slide scanner. Cell death was determined by Image J analysis, counting the death cell (red, PI)) vs all cells (blue, DAPI).
(§2) One hour after compound addition (1 or 10 μM of compound 2 or compound 22) neurons were treated with a cytotoxic agent (100 μM N-methyl-D-aspartate (NMDA), 100 μM H2O2 or 5 μM staurosporine). One hour after treatment with the cytotoxic agent, the media was replaced with fresh media and the neurons were incubated for 24 hours. A final concentration of 1 μM propidium iodide (PI) was added into the well and incubated for 5 mins. Cells were washed with phosphate-buffered saline (PBS) and then fixed with 4% PFA. Cells were then washed and stained with DAPI, and cell death determined as described above.

primary neurons [2] = experiment: Neuronal cell death in the presence of staurosporine; type: cell-based, mouse; settings: 1 or 10 μM compound, 5 μM staurosporine
Protocol: as §1, §2

[3] = Mouse pharmacokinetics, IP administration; type: in vivo
Protocol: (§3) Pharmacokinetic parameters of compound 22 (prepared in accordance with Example 2) were determined following intravenous (IV, 3 mg/kg) and intraperitoneal (IP, 10 mg/kg) administration to male C57BL/6 mice.
(§4) IV and IP formulations were prepared separately by dissolving solid compound 22 in dimethyl sulfoxide (DMSO) prior to addition of 50 mM phosphate buffered saline (pH 6.5) using vortexing and sonication to produce a colourless solution, and giving a final DMSO concentration of 5% (v/v) for each formulation. The IV formulation was filtered through a 0.22 μm syringe filter prior to dosing, whereas the IP formulation was not filtered.
(§5) The pharmacokinetics of compound 22 was studied in non-fasted male C57BL/6 mice weighing 21.1-26.5 g. Mice had access to food and water ad libitum throughout the pre- and post-dose sampling period.
(§6) Compound 22 was dosed to mice by bolus injection into the lateral tail vein (2 mL/kg) for IV administration and by injection into the IP cavity (5 mL/kg) for IP administration. After dosing, blood samples were collected up to 24 h (n=3 mice per time point) with a maximum of three samples from each mouse via submandibular bleed (approximately 120 μL). No urine samples were collected as mice were housed in bedded cages. Blood was collected into polypropylene Eppendorf tubes containing heparin as anticoagulant. Once collected, blood samples were centrifuged immediately, supernatant plasma was removed, and stored at −80 °C until analysis by liquid chromatography-mass spectrometry (LC-MS). A summary of the bioanalytical method is included in Table 5.
(§7) Concentrations of test compound in plasma and tissue samples were determined using a liquid chromatography with tandem mass spectrometry (LCMS/MS) method validated for linearity, accuracy, precision, matrix factor and recovery (refer to Table 5).
(§8) Plasma: The plasma calibration curve was prepared by spiking aliquots of blank mouse plasma (25 μL) with test compound standard solutions (5 μL) and internal standard solution (5 μL of diazepam, 5 μg/mL in 50% acetonitrile in water). Test plasma samples (25 μL) were thawed, mixed and then spiked with internal standard solution (5 μL). Plasma protein precipitation was performed by addition of acetonitrile (3-fold volume ratio) and thorough vortex mixing. Samples were centrifuged (RCF=9391×g) for 3 minutes and the supernatant (100 μL) was collected for analysis. The analysis of blood/plasma (B/P) partitioning samples was conducted similarly as for the plasma samples, using protein precipitation with acetonitrile as described above.
(§9) The plasma concentration versus time profile was defined by the average plasma concentration at each sample time, and PK parameters were calculated using non-compartmental methods (PKSolver Version 2.0). Standard calculations for each pharmacokinetic parameter are listed below.

[4] = test system: PHP.B hSyn-NSP5-V5 adeno-associated virus; experiment: Hanging wire test; type: in vivo, mouse; settings: 10 mg/kg daily, vs Paxlovid and vehicle
Protocol: (§10) In vivo testing was performed on 5-month-old female C57BL/6 wildtype mice injected intravenously with PHP.B hSyn-NSP5-V5 adeno-associated virus (AAV) and treated daily with compound 22 (10 mg/kg), Paxlovid (nirmatrelvir/ritonavir) (10 mg/kg nirmatrelvir: 3.33 mg/kg ritonavir) or a vehicle control (n=10 per group).
(§11) Motor testing was performed on the Rota-rod five times daily over a three-day testing period as previously described (refer to Ke et al. (2015) Acta Neuropathol, 130: 661-678). Motor coordination was also assessed using the hanging wire test at 14 and 22 days post injection with the AAV, which assessed the time hanging upside down on a wire grid (refer to Chan et al. (2020) Am J Path, 190(8): 1713-1722). Anxiety, disinhibition and exploratory behaviour was assessed using the elevated plus maze (EPM) test as previously described (refer to Ke et al. (2015) Acta Neuropathol, 130: 661-678).

[5] = test system: PHP.B hSyn-NSP5-V5 adeno-associated virus; experiment: Rota-rod motor testing; type: in vivo, mouse; settings: 10 mg/kg daily, three-day testing, 15-17 days post AAV, vs Paxlovid
Protocol: as §10, §11

[6] = Mouse pharmacokinetics, IV administration; type: in vivo
Protocol: as §3, §4, §5, §6, §7, §8, §9

[7] = mouse, plasma, IP 10 mg/kg, male C57BL/6 mice

In the case of `NC(=O)C1CCN(c2ncccc2CNCc2cccc3[nH]ccc23)CC1` [Compound 22], the “Protection from H2O2-induced neurotoxicity” value (primary neurons [1]) is reported as “did not protect”, the “Protection from staurosporine-induced neurotoxicity” value (primary neurons [2]) is reported as “did not protect” and the “BA (apparent bioavailability)” value ([3]; IP 10 mg/kg, truncated AUC0-7.5 h, likely slight underestimation, 10 mg/kg, 450 min) is reported as 47.3%. It also gave a bioavailability at 7.5 h ([3]; mouse, plasma, ip, 10 mg/kg, truncated AUC0-7.5 h, likely slight underestimation, read-out: BA (apparent bioavailability)) of 47%, a Cmax [3, 7] of 4.25 µM and a Tmax [3, 7] of 0.25 h. The AUC(0-t) ([3]; mouse, plasma, IP 10 mg/kg, male C57BL/6 mice, read-out: Plasma AUC0-last) was 2.56 µM·h, the “Hanging wire test, mice reaching maximum time” value ([4]; 14 days post AAV) was “more compound 22-treated mice reaching the maximum time” and the “Hanging wire test, mice reaching maximum time” value ([4]; 22 days post AAV) was “more compound 22-treated mice reaching the maximum time”. For the same molecule, the “Rota-rod average time of five daily trials” value [5] was “performed significantly better than Paxlovid-treated mice”, the “Rota-rod maximum time of five daily trials” value [5] was “performed significantly better than Paxlovid-treated mice” and the “Apparent blood volume of distribution” value ([6]; IV 3 mg/kg) was “high”. The Blood clearance ([6]; IV 3 mg/kg) was “moderate”, the “Duration of measurable plasma concentrations” value ([6]; IV 3 mg/kg) was 24 h and the “In vivo blood clearance relative to nominal hepatic blood flow” value ([6]; IV 3 mg/kg, mouse) was ~ 50%. For the same molecule, the “In vivo hepatic extraction ratio” value ([6]; IV 3 mg/kg, assuming predominantly hepatic clearance) was “moderate”, the clearance ([6]; mouse, blood, IV 3 mg/kg, extrapolation to infinity, approximation only, read-out: Blood CL) was 60.6 mL/min/kg and the Vd ([6]; mouse, blood, IV 3 mg/kg, extrapolation to infinity, approximation only, read-out: Blood VSS) was 16.6 L/kg. It also gave a half-life ([6]; mouse, plasma, iv, 3 mg/kg, male C57BL/6 mice, terminal phase not clearly defined, approximation only, read-out: Apparent t1/2 (converted)) of roughly 14 h, an AUC(0-t) ([6]; mouse, plasma, IV 3 mg/kg, male C57BL/6 mice, read-out: Plasma AUC0-last) of 1.51 µM·h and an AUC(0-inf) ([6]; mouse, plasma, IV 3 mg/kg, extrapolation to infinity, approximation only, read-out: Plasma AUC0-inf) of 1.62 µM·h. It also gave a clearance ([6]; mouse, plasma, IV 3 mg/kg, extrapolation to infinity, approximation only, read-out: Plasma CL) of 84.9 mL/min/kg and a Vd ([6]; mouse, plasma, IV 3 mg/kg, extrapolation to infinity, approximation only, read-out: Plasma VSS) of 23.3 L/kg.

From US20260355171A1, “INHIBITORS AND USES THEREFOR” (priority 2022, published 2026)
